From US20220125765A1, “PHARMACEUTICAL COMBINATIONS COMPRISING MEBENDAZOLE AND A STRONG OR MODERATE CYP1A2 INHIBITOR” (ZEPHAPHARM LTD, priority 2019, published 2022)
Where two headings read alike, the source gives them in different places.

Key:
P-gp = P-gp (Homo sapiens, UniProt P08183); assay: in vitro; settings: human
human P-gp transporter = human P-gp transporter (Homo sapiens, UniProt P08183); assay: in vitro; settings: Caco-2
CYP1A2 = biological target: T1, CYP1A2 (Homo sapiens, UniProt P05177); assay: Cytochrome P450 reaction phenotyping, recombinant CYP1A2 (Bactosomes); settings: for Compound Remaining (% of 0 min): CYP1A2, 5 μM
T1 sequence (P05177 1-516): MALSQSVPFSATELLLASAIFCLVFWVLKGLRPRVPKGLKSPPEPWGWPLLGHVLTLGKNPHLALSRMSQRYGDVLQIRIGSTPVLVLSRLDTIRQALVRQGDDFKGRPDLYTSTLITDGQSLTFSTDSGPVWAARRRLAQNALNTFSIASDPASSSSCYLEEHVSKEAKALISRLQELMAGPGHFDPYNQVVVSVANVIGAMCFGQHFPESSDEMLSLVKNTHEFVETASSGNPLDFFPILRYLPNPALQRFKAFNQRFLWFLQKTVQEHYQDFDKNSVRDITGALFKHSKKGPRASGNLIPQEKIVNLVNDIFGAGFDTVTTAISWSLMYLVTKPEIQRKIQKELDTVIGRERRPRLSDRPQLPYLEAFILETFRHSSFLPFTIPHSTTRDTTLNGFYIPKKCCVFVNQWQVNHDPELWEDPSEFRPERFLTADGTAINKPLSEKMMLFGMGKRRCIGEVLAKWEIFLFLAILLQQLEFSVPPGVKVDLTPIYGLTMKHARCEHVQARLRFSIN
Description: Incubations were also performed using control Bactosomes™ (no P450 enzymes present) to reveal any non-enzymatic degradation. Control compounds known to be metabolised specifically by each P450 isoform were included. All incubations were performed singularly for each test compound.
Incubations were also performed using control Bactosomes™ (no P450 enzymes present) to reveal any non-enzymatic degradation. Control compounds known to be metabolised specifically by each P450 isoform were included. All incubations were performed singularly for each test compound. […] The reactions were stopped by transferring an aliquot of incubate to quench solvent at the appropriate time points, in a 1:3 ratio. The termination plates were centrifuged at 3,000 rpm for 20 min at 4° C. to precipitate the protein.

NBXF SK-N-BE(2) = assay: 2D monolayer CellTiter-Blue viability, neuroblastoma SK-N-BE(2); format: cell-based; settings: 72 h
Description: (§1) Seventeen compounds, including mebendazole (Batch no. […] Efficacy of compounds was assessed using CellTiter-Blue® Cell Viability Assay. Anti-tumor activity is expressed as absolute and relative IC50 and IC70 values, calculated by non-linear regression analysis.

SXFE RD-ES = assay: 2D monolayer CellTiter-Blue viability, Ewing sarcoma RD-ES; format: cell-based; settings: 72 h
Description: as §1

SXFS TE671 = assay: 2D monolayer CellTiter-Blue viability, soft tissue sarcoma TE671; format: cell-based; settings: 72 h
Description: as §1

RXF 1781L = assay: 2D monolayer CellTiter-Blue viability, renal cancer RXF 1781L; format: cell-based; settings: for Test/Control (%) at Drug Concentration: 72 h; for IC50: RXF 1781L
Description: (§2) Mebendazole was tested in vitro across a panel of 12 tumor cell lines of ovarian and renal cancer by using a 2D monolayer assay. […] OVXF 899L and RXF 486L are P-gp expressing, multidrug resistant cell lines.
(§3) Anti-tumor activity is expressed as absolute and relative IC50/70 values, calculated by 4-parameter non-linear curve fit.

786-O = assay: 2D monolayer CellTiter-Blue viability, renal cancer 786-O; format: cell-based; settings: for IC50: Homo sapiens, 786-0, 72 h
Description: as §2, §3

in vitro = settings: human, hepatocytes, t½
Description: Mebendazole (1 μM) was incubated with cryopreserved human hepatocytes for 60 min in the absence and presence of cimetidine at 30, 100 and 300 μM) and thiabendazole at 10, 30 and 100 μM and samples taken at the required time points. The amount of test compound remaining at each time point was analysed by LC-MS/MS. Appropriate control compounds were also incubated along with ethoxycoumarin, which was incubated in the absence and presence of cimetidine and thiabendazole.
The final incubation volume was 500 μL. Two control compounds were included, alongside appropriate vehicle control. A positive control compound, ethoxycoumarin, for CYP1A2 was included. The positive control compound was incubated without inhibitor and in the presence of each inhibitor. The reactions were stopped by transferring 50 μL of incubate to 100 μL acetonitrile containing internal standard at the appropriate time points (0, 5, 10, 20, 40 and 60 min). The termination plates were centrifuged at 2500 rpm at 4° C. for 30 min to precipitate the protein.

Chain of P-gp (P08183 whole entry): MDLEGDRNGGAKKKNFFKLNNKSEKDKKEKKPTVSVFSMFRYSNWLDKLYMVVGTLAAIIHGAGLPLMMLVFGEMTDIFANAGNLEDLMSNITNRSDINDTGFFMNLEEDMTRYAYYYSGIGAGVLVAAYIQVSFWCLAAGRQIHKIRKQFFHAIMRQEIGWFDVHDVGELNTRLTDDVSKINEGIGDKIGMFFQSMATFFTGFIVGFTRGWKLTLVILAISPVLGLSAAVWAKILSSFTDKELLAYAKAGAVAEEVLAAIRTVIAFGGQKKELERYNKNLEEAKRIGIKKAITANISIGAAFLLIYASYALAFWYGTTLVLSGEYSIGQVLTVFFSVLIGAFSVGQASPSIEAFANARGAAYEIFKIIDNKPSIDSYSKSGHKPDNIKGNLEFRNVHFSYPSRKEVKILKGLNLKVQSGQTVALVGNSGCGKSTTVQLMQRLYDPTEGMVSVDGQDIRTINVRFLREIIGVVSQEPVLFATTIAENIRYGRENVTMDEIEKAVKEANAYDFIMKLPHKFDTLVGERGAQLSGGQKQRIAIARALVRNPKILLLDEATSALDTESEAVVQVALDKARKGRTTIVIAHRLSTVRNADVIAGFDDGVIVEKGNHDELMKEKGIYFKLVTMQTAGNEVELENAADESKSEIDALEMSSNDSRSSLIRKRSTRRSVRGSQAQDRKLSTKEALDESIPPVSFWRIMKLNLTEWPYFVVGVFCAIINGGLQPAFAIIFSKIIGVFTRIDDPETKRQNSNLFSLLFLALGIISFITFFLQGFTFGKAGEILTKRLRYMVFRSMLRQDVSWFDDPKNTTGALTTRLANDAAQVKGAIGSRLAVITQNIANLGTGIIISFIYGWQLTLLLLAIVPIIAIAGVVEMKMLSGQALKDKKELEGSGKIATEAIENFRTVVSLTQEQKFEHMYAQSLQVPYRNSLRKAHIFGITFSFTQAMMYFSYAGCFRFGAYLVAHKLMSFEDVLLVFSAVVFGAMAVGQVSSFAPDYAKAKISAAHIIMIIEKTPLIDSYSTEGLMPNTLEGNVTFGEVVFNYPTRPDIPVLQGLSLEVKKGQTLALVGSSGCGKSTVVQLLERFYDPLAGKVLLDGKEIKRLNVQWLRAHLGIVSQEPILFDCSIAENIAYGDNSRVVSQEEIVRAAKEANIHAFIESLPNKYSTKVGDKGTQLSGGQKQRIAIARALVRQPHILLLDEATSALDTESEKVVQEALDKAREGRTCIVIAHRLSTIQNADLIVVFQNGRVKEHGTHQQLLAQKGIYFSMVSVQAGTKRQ
Chain of human P-gp transporter (P08183 whole entry): as above

COC(=O)Nc1nc2ccc(C(=O)c3ccccc3)cc2[nH]1 [Mebendazole, methyl N-(6-benzoyl-1H-benzimidazol-2-yl)carbamate] gave an efflux ratio at 120 min, 10 μM (P-gp; Caco-2) of 1.17, a Papp A→B at 120 min, 10 μM (P-gp; Caco-2, Papp Mean) of 25.4 ×10⁻⁶ cm/s and a Papp B→A at 120 min, 10 μM (P-gp; Caco-2, Papp Mean) of 29.8 ×10⁻⁶ cm/s. It also gave a Papp A→B at 120 min, 10 μM (P-gp; Caco-2, Papp Rep 1) of 22.4 ×10⁻⁶ cm/s, a Papp B→A at 120 min, 10 μM (P-gp; Caco-2, Papp Rep 1) of 30.2 ×10⁻⁶ cm/s and a Papp A→B at 120 min, 10 μM (P-gp; Caco-2, Papp Rep 2) of 28.5 ×10⁻⁶ cm/s. For the same molecule, the Papp B→A at 120 min, 10 μM (P-gp; Caco-2, Papp Rep 2) was 29.4 ×10⁻⁶ cm/s, the recovery at 120 min, 10 µM (P-gp; Caco-2, calculated mean % recovery values (range)) was 55.7 to 75.1% and the passive permeability (human P-gp transporter) was “high passive permeability”. For the same molecule, the “Compound Remaining (% of 0 min)” value (CYP1A2; 0 min) was 100 % of 0 min, the “Compound Remaining (% of 0 min)” value (CYP1A2; 5 min) was 80.1 % of 0 min and the “Compound Remaining (% of 0 min)” value (CYP1A2; 15 min) was 45.8 % of 0 min. For the same molecule, the “Compound Remaining (% of 0 min)” value (CYP1A2; 30 min) was 20.7 % of 0 min, the “Compound Remaining (% of 0 min)” value (CYP1A2; 45 min) was 9.88 % of 0 min and the half-life at 5 μM (CYP1A2; human, recombinant CYP1A2 (Bactosomes), pH 7.4) was 13.3 min. The “Test/Control (%) at Drug Concentration” value (NBXF SK-N-BE(2); 1.0E+00 μM) was 13%, the “Test/Control (%) at Drug Concentration” value (NBXF SK-N-BE(2); 1.0E+01 μM) was 3% and the “Test/Control (%) at Drug Concentration” value (NBXF SK-N-BE(2); 1.0E+02 μM) was −1%. For the same molecule, the “Test/Control (%) at Drug Concentration” value (NBXF SK-N-BE(2); 1.0E−01 μM) was 55%, the “Test/Control (%) at Drug Concentration” value (NBXF SK-N-BE(2); 1.0E−02 μM) was 85% and the “Test/Control (%) at Drug Concentration” value (NBXF SK-N-BE(2); 3.2E+00 μM) was 6%. For the same molecule, the “Test/Control (%) at Drug Concentration” value (NBXF SK-N-BE(2); 3.2E+01 μM) was 2%, the “Test/Control (%) at Drug Concentration” value (NBXF SK-N-BE(2); 3.2E−01 μM) was 23% and the “Test/Control (%) at Drug Concentration” value (NBXF SK-N-BE(2); 3.2E−02 μM) was 80%. The “Test/Control (%) at Drug Concentration” value (NBXF SK-N-BE(2); 3.2E−03 μM) was 87%, the “Test/Control (%) at Drug Concentration” value (SXFE RD-ES; 1.0E+00 μM) was 14% and the “Test/Control (%) at Drug Concentration” value (SXFE RD-ES; 1.0E+01 μM) was 6%. The “Test/Control (%) at Drug Concentration” value (SXFE RD-ES; 1.0E+02 μM) was 3%, the “Test/Control (%) at Drug Concentration” value (SXFE RD-ES; 1.0E−01 μM) was 78% and the “Test/Control (%) at Drug Concentration” value (SXFE RD-ES; 1.0E−02 μM) was 88%. The “Test/Control (%) at Drug Concentration” value (SXFE RD-ES; 3.2E+00 μM) was 7%, the “Test/Control (%) at Drug Concentration” value (SXFE RD-ES; 3.2E+01 μM) was 5% and the “Test/Control (%) at Drug Concentration” value (SXFE RD-ES; 3.2E−01 μM) was 29%. For the same molecule, the “Test/Control (%) at Drug Concentration” value (SXFE RD-ES; 3.2E−02 μM) was 84%, the “Test/Control (%) at Drug Concentration” value (SXFE RD-ES; 3.2E−03 μM) was 93% and the “Test/Control (%) at Drug Concentration” value (SXFS TE671; TE671, 1.0E+00 μM) was 38%. The “Test/Control (%) at Drug Concentration” value (SXFS TE671; TE671, 1.0E+01 μM) was 17%, the “Test/Control (%) at Drug Concentration” value (SXFS TE671; TE671, 1.0E+02 μM) was 5% and the “Test/Control (%) at Drug Concentration” value (SXFS TE671; TE671, 1.0E−01 μM) was 72%. The “Test/Control (%) at Drug Concentration” value (SXFS TE671; TE671, 1.0E−02 μM) was 87%, the “Test/Control (%) at Drug Concentration” value (SXFS TE671; TE671, 3.2E+00 μM) was 32% and the “Test/Control (%) at Drug Concentration” value (SXFS TE671; TE671, 3.2E+01 μM) was 13%. For the same molecule, the “Test/Control (%) at Drug Concentration” value (SXFS TE671; TE671, 3.2E−01 μM) was 45%, the “Test/Control (%) at Drug Concentration” value (SXFS TE671; TE671, 3.2E−02 μM) was 85% and the “Test/Control (%) at Drug Concentration” value (SXFS TE671; TE671, 3.2E−03 μM) was 80%. For the same molecule, the “Test/Control (%) at Drug Concentration” value (RXF 1781L; RXF 1781, 1.0E+00 μM) was 25%, the “Test/Control (%) at Drug Concentration” value (RXF 1781L; RXF 1781, 1.0E−01 μM) was 91% and the “Test/Control (%) at Drug Concentration” value (RXF 1781L; RXF 1781, 1.0E−02 μM) was 92%. For the same molecule, the “Test/Control (%) at Drug Concentration” value (RXF 1781L; RXF 1781, 1.0E−03 μM) was 101%, the “Test/Control (%) at Drug Concentration” value (RXF 1781L; RXF 1781, 1.0E−04 μM) was 98% and the “Test/Control (%) at Drug Concentration” value (RXF 1781L; RXF 1781, 3.2E+00 μM) was 32%. For the same molecule, the “Test/Control (%) at Drug Concentration” value (RXF 1781L; RXF 1781, 3.2E−01 μM) was 61%, the “Test/Control (%) at Drug Concentration” value (RXF 1781L; RXF 1781, 3.2E−02 μM) was 95% and the “Test/Control (%) at Drug Concentration” value (RXF 1781L; RXF 1781, 3.2E−03 μM) was 95%. For the same molecule, the “Test/Control (%) at Drug Concentration” value (RXF 1781L; RXF 1781, 3.2E−04 μM) was 100%, the “Abs. IC70” value (RXF 1781L; RXF 1781, 72 h) was 978 nM and the “Rel. IC70” value (RXF 1781L; RXF 1781, 72 h) was 410 nM. For the same molecule, the “Bot. (%)” value (RXF 1781L; RXF 1781, 72 h, curve fit) was 28%, the “Top (%)” value (RXF 1781L; RXF 1781, 72 h, curve fit) was 96% and the IC50 (RXF 1781L; RXF 1781, 72 h, read-out: Abs. IC50) was 395 nM. The IC50 (RXF 1781L; RXF 1781, 72 h, read-out: Rel. IC50) was 309 nM, the “Test/Control (%) at Drug Concentration” value (786-O; 1.0E+00 μM, 72 h) was 20% and the “Test/Control (%) at Drug Concentration” value (786-O; 1.0E−01 μM, 72 h) was 95%. The “Test/Control (%) at Drug Concentration” value (786-O; 1.0E−02 μM, 72 h) was 87%, the “Test/Control (%) at Drug Concentration” value (786-O; 1.0E−03 μM, 72 h) was 98% and the “Test/Control (%) at Drug Concentration” value (786-O; 1.0E−04 μM, 72 h) was 107%. For the same molecule, the “Test/Control (%) at Drug Concentration” value (786-O; 3.2E+00 μM, 72 h) was 9%, the “Test/Control (%) at Drug Concentration” value (786-O; 3.2E−01 μM, 72 h) was 69% and the “Test/Control (%) at Drug Concentration” value (786-O; 3.2E−02 μM, 72 h) was 88%. For the same molecule, the “Test/Control (%) at Drug Concentration” value (786-O; 3.2E−03 μM, 72 h) was 97%, the “Test/Control (%) at Drug Concentration” value (786-O; 3.2E−04 μM, 72 h) was 87% and the “Abs. IC70” value (786-O; 72 h) was 712 nM. The “Rel. IC70” value (786-O; 72 h) was 640 nM, the “Bot. (%)” value (786-O; 72 h, curve fit) was 9% and the “Top (%)” value (786-O; 72 h, curve fit) was 94%. For the same molecule, the IC50 (786-O; read-out: Abs. IC50) was 470 nM, the IC50 (786-O; read-out: Rel. IC50) was 457 nM and the half-life at 1 μM (in vitro) was 92.4 min.
